In US7417156B2, “Orally active, antimalarial, anticancer, artemisinin-derived trioxane dimers” (Johns Hopkins University, priority 2002, dated 2008):
pIC50: −log10 of the molar value.

Legend:
BT-549 = test: NCI 60 cell line panel screen (SRB); assay type: cell-based, human; conditions: for Log10TGI50: TGI: PG=0
MOLT-4 = conditions: for Log10GI50: Leukemia, MOLT-4; for Log10TGI50: TGI: PG=0
Protocol: Growth Inhibition. […] The screening assay is performed on 96-well microtitre plates. Relatively high initial inoculation densities are used, in order to permit measurement of “time-zero” values and to enhance the screen's ability to detect and provide some differentiation between growth inhibition and cytotoxic response parameters. […] The inoculated microtitre plates are pre-incubated for 24 hours at 37° C. prior to drug additions. The five drug dilutions tested routinely range from 10^−4 to 10^−8 molar. Higher or lower concentration ranges may be selected on a non-routine basis if appropriate solubility and/or prior biological information or other screening data so dictate. Duplicate wells are prepared for all concentrations, (concentration is often denoted by placing brackets around a number); “time-zero” and “no drug” controls are also provided for each test. The minimum amount of compound required for a one-time evaluation in the routine screen can be calculated from the knowledge that each test requires a total of approximately 40 ml (0.04 liter) of cell culture medium containing the highest desired drug concentration. […] After a 48 hour incubation (37° C.) with the test compound, the cells are fixed in situ to the bottoms of the microtitre wells by addition of 50 μl of either 50% trichloroacetic acid (for adherent cell lines) or 80% trichloroacetic acid (for settled cell suspension lines), followed by incubation for 60 minutes at 4° C. The cellular protein in each well is assayed using a sulforhodamine B (SRB) stain procedure. Briefly, after discarding the supernatants, the microtitre plates are washed 5 times with deionized water and air-dried. […] Unbound SRB is removed by washing 5 times with 1% acetic acid. […] SRB is a bright pink anionic dye which, in dilute acetic acid, binds electrostatically to the basic amino acids of TCA-fixed cells. Cryopreserved master stocks of all the lines are maintained, and cultures used for screening are replaced from the master stock after no more than twenty passages in the screening laboratory. The cell line panel consists of 60 lines, organized into nine, disease-related subpanels including leukemia, non-small-cell lung cancer, colon, CNS, melanoma, ovarian, renal, prostate and breast cancers.
At this value the increase from time tzero, in the number or mass of cells in the test well is only 50% as much as the corresponding increase in the control well during this period of the experiment, see Table III. A drug effect of this intensity is interpreted as primary growth inhibition.
At this value the number or mass of cells in the well at the end of the experiment equals the number or mass of cells in the well at time tzero, see Table IV. A drug effect of this intensity is regarded as cytostasis.
At this value, the number or mass of cells in the test well at the end of the experiment is half that at time tzero, see Table V. This is interpreted as cytotoxicity.
Dose response curves, shown in the above mentioned Figures, are obtained by exposing various cancer cell lines to compounds having a known concentration ([log10M]), as discussed in detail above, and then plotting the percentage growth of each cell line for each concentration. […] Percentage growth is determined by dividing the number or mass of cells in the test well by the number or mass of cells in a control well. […] As discussed previously, the five drug dilutions routinely tested range from 10^−4 to […].

HOP-62 = test: NCI 60 cell line panel screen (SRB); assay type: cell-based, human; conditions: for Log10TGI50: TGI: PG=0; for Log10GI50: Non-Small Cell Lung Cancer, HOP-62
UACC-257 = test: NCI 60 cell line panel screen (SRB); assay type: cell-based, human; conditions: for Log10TGI50: TGI: PG=0
RXF 393 = test: NCI 60 cell line panel screen (SRB); assay type: cell-based, human; conditions: for Log10TGI50: TGI: PG=0
MCF7 = test: NCI 60 cell line panel screen (SRB); assay type: cell-based, human; conditions: for Log10GI50: Breast Cancer, MCF7; for Log10TGI50: TGI: PG=0
K-562 = test: NCI 60 cell line panel screen (SRB); assay type: cell-based, human; conditions: for Log10TGI50: TGI: PG=0
SF-268 = test: NCI 60 cell line panel screen (SRB); assay type: cell-based, human
NCI/ADR-RES = test: NCI 60 cell line panel screen (SRB); assay type: cell-based, human; conditions: for Log10GI50: Breast Cancer, NCI/ADR-RES; for Log10TGI50: TGI: PG=0
CCRF-CEM = test: NCI 60 cell line panel screen (SRB); assay type: cell-based, human; conditions: for Log10TGI50: TGI: PG=0
HL-60(TB) = test: NCI 60 cell line panel screen (SRB); assay type: cell-based, human; conditions: for Log10TGI50: TGI: PG=0
SF-539 = test: NCI 60 cell line panel screen (SRB); assay type: cell-based, human
[1] = tested on: chloroquine-sensitive P. falciparum (NF54); test: Antimalarial activity in vitro, [3H]hypoxanthine incorporation; assay type: cell-based; conditions: Table I; NF54 strain; read-out: IC50
EKVX = test: NCI 60 cell line panel screen (SRB); assay type: cell-based, human; conditions: for Log10TGI50: TGI: PG=0; for Log10GI50: Non-Small Cell Lung Cancer, EKVX
OVCAR-8 = test: NCI 60 cell line panel screen (SRB); assay type: cell-based, human; conditions: for Log10TGI50: TGI: PG=0; for Log10GI50: Ovarian Cancer, OVCAR-8
HT29 = test: NCI 60 cell line panel screen (SRB); assay type: cell-based, human; conditions: for Log10TGI50: TGI: PG=0
SK-OV-3 = test: NCI 60 cell line panel screen (SRB); assay type: cell-based, human; conditions: for Log10TGI50: TGI: PG=0
[2] = HOP-62 (Non-Small Cell Lung Cancer)
[3] = EKVX (Non-Small Cell Lung Cancer)

For `C[C@@H]1CC[C@H]2[C@@H](C)C(CC(O)(CC3OC4O[C@]5(C)CC[C@H]6[C@H](C)CC[C@@H]([C@H]3C)C46OO5)c3ccc(C(=O)O)cc3)OC3O[C@]4(C)CCC1C32OO4` (stereo partly shown) [Compound 11b, bis-trioxane tertiary alcohol benzoic acid], the Log10LC50 (BT-549; BT-549 (Breast Cancer), LC50: PG=−50) was >−4.30 log10M, the Log10TGI50 (BT-549; BT-549 (Breast Cancer)) was −5.32 log10M and the Log10GI50 (BT-549; Breast Cancer, BT-549) was −5.82. The Log10GI50 (MOLT-4) was <−8.30, the Log10LC50 (MOLT-4; MOLT-4 (Leukemia), LC50: PG=−50) was >−4.30 log10M and the Log10TGI50 (MOLT-4; MOLT-4 (Leukemia)) was >−4.30 log10M. For the same molecule, the Log10LC50 (HOP-62; HOP-62 (Non-Small Cell Lung Cancer), LC50: PG=−50) was >−4.30 log10M, the Log10TGI50 (HOP-62; [2]) was >−4.30 log10M and the Log10GI50 (HOP-62) was −6.96. The Log10LC50 (UACC-257; UACC-257 (Melanoma), LC50: PG=−50) was >−4.30 log10M, the Log10TGI50 (UACC-257; UACC-257 (Melanoma)) was >−4.30 log10M and the Log10LC50 (RXF 393; RXF 393 (Renal Cancer), LC50: PG=−50) was >−4.30 log10M. The Log10TGI50 (RXF 393; RXF 393 (Renal Cancer)) was −7.60 log10M, the Log10GI50 (RXF 393; Renal Cancer, RXF 393) was <−8.30 and the Log10GI50 (MCF7) was <−8.30. For the same molecule, the Log10LC50 (MCF7; MCF7 (Breast Cancer), LC50: PG=−50) was >−4.30 log10M, the Log10TGI50 (MCF7; MCF7 (Breast Cancer)) was >−4.30 log10M and the Log10LC50 (K-562; K-562 (Leukemia), LC50: PG=−50) was >−4.30 log10M. The Log10TGI50 (K-562; K-562 (Leukemia)) was >−4.30 log10M, the Log10GI50 (K-562; Leukemia, K-562) was <−8.30 and the Log10GI50 (SF-268; CNS Cancer, SF-268) was −7.72. For the same molecule, the Log10LC50 (SF-268; SF-268 (CNS Cancer), LC50: PG=−50) was >−4.30 log10M, the Log10TGI50 (SF-268; SF-268 (CNS Cancer), TGI: PG=0) was >−4.30 log10M and the Log10GI50 (NCI/ADR-RES) was −6.84. The Log10LC50 (NCI/ADR-RES; NCI/ADR-RES (Breast Cancer), LC50: PG=−50) was >−4.30 log10M, the Log10TGI50 (NCI/ADR-RES; NCI/ADR-RES (Breast Cancer)) was >−4.30 log10M and the Log10LC50 (CCRF-CEM; CCRF-CEM (Leukemia), LC50: PG=−50) was >−4.30 log10M. The Log10TGI50 (CCRF-CEM; CCRF-CEM (Leukemia)) was >−4.30 log10M, the Log10GI50 (CCRF-CEM; Leukemia, CCRF-CEM) was −8.07 and the Log10LC50 (HL-60(TB); HL-60(TB) (Leukemia), LC50: PG=−50) was −4.55 log10M. For the same molecule, the Log10TGI50 (HL-60(TB); HL-60(TB) (Leukemia)) was −8.11 log10M, the Log10GI50 (HL-60(TB); Leukemia, HL-60(TB)) was <−8.30 and the Log10GI50 (SF-539; CNS Cancer, SF-539) was −4.80. For the same molecule, the Log10LC50 (SF-539; SF-539 (CNS Cancer), LC50: PG=−50) was >−4.30 log10M, the Log10TGI50 (SF-539; SF-539 (CNS Cancer), TGI: PG=0) was >−4.30 log10M and the pIC50 [1] was 8.68. The Log10LC50 (EKVX; EKVX (Non-Small Cell Lung Cancer), LC50: PG=−50) was >−4.30 log10M, the Log10TGI50 (EKVX; [3]) was >−4.30 log10M and the Log10GI50 (EKVX) was −4.79. The Log10LC50 (OVCAR-8; OVCAR-8 (Ovarian Cancer), LC50: PG=−50) was >−4.30 log10M, the Log10TGI50 (OVCAR-8; OVCAR-8 (Ovarian Cancer)) was >−4.30 log10M and the Log10GI50 (OVCAR-8) was −5.26. For the same molecule, the Log10GI50 (HT29; Colon Cancer, HT29) was <−8.30, the Log10LC50 (HT29; HT29 (Colon Cancer), LC50: PG=−50) was >−4.30 log10M and the Log10TGI50 (HT29; HT29 (Colon Cancer)) was >−4.30 log10M. For the same molecule, the Log10LC50 (SK-OV-3; SK-OV-3 (Ovarian Cancer), LC50: PG=−50) was >−4.30 log10M and the Log10TGI50 (SK-OV-3; SK-OV-3 (Ovarian Cancer)) was >−4.30 log10M.

For `CC1CCC2C(C)C(CC(COCC(=O)O)CC3OC4OC5(C)CCC6C(C)CCC(C3C)C46OO5)OC3OC4(C)CCC1C32OO4` (stereo not shown) [Compound 12b, bis-trioxane O-acetic acid], the Log10TGI50 (BT-549; BT-549 (Breast Cancer)) was >−4.30 log10M, the Log10GI50 (MOLT-4) was −7.66 and the Log10TGI50 (MOLT-4; MOLT-4 (Leukemia)) was >−4.30 log10M. The Log10TGI50 (HOP-62; [2]) was >−4.30 log10M, the Log10GI50 (HOP-62) was −6.23 and the Log10GI50 (UACC-257; Melanoma, UACC-257) was >−4.30. The Log10TGI50 (UACC-257; UACC-257 (Melanoma)) was >4.30 log10M, the Log10TGI50 (RXF 393; RXF 393 (Renal Cancer)) was <−8.30 log10M and the Log10GI50 (MCF7) was −7.37. The Log10TGI50 (MCF7; MCF7 (Breast Cancer)) was >−4.30 log10M, the Log10TGI50 (K-562; K-562 (Leukemia)) was >−4.30 log10M and the Log10GI50 (NCI/ADR-RES) was −6.45. The Log10TGI50 (NCI/ADR-RES; NCI/ADR-RES (Breast Cancer)) was >−4.30 log10M, the Log10TGI50 (CCRF-CEM; CCRF-CEM (Leukemia)) was >−4.30 log10M and the Log10TGI50 (HL-60(TB); HL-60(TB) (Leukemia)) was <−8.30 log10M. For the same molecule, the pIC50 [1] was 8.49, the Log10TGI50 (EKVX; [3]) was >−4.30 log10M and the Log10GI50 (EKVX) was >−4.30. The Log10TGI50 (OVCAR-8; OVCAR-8 (Ovarian Cancer)) was >−4.30 log10M, the Log10GI50 (OVCAR-8) was >−4.30 and the Log10TGI50 (HT29; HT29 (Colon Cancer)) was >−4.30 log10M. The Log10GI50 (SK-OV-3; Ovarian Cancer, SK-OV-3) was >−4.30 and the Log10TGI50 (SK-OV-3; SK-OV-3 (Ovarian Cancer)) was >−4.30 log10M.
